The target of assay [1] is T1, Thymidylate synthase (Lactobacillus casei) (UniProt P00469).
T1 sequence (whole entry): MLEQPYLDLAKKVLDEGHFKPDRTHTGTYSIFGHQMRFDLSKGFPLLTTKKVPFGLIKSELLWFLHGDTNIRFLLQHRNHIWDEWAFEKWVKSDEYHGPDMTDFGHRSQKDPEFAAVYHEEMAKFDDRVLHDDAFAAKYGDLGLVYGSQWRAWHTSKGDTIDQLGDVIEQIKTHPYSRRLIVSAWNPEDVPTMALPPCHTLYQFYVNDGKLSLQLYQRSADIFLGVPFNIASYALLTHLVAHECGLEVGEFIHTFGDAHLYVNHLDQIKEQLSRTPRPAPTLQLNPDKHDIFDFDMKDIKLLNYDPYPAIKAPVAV
The assay is described as follows: Kinetic constant for inactivation of Lactobacillus casei thymidylate synthase from double reciprocal plots. The conditions noted are these: Lacticaseibacillus casei.

A short description of assay [2]: Apparent second order rate constant determined as the ratio of kinact/Ki.
Assay [3] deals with T1, Thymidylate synthase (Lactobacillus casei). The conditions noted are these: Lacticaseibacillus casei; 10 uM.
The target is the same in assay [4]. The following applies: Lacticaseibacillus casei.
The target is the same in assay [5]. The conditions noted are these: Lacticaseibacillus casei. This is another data set of the same source.
The target is the same in assay [6]. The following applies: Lacticaseibacillus casei. The source holds these as a separate data set.
Assay [7] has the same target. The conditions noted are these: Lacticaseibacillus casei. The source holds these as a separate data set.
Assay [8] shares this target. The following applies: Lacticaseibacillus casei. This is another data set of the same source.
The target is the same in assay [9]. The conditions noted are these: Lacticaseibacillus casei. The source holds these as a separate data set.
The target is the same in assay [10]. The conditions noted are these: Lacticaseibacillus casei. The source holds these as a separate data set.
For assay [11] the target is unchanged. The following applies: Lacticaseibacillus casei. This is another data set of the same source.
The target is the same in assay [12]. As to the kind of experiment: Kinetic constant for the inactivation of Lactobacillus casei thymidylate synthase was determined at 10 uM concentration using 0 uM of substrate. The conditions noted are these: Lacticaseibacillus casei.

Take `O=C1C=CC(=O)C(c2cn([C@H]3C[C@H](O)[C@@H](COP(=O)(O)O)O3)c(=O)[nH]c2=O)=C1`: in assay [1], the K inact was determined as 0.065 s⁻¹. Moreover, in [2], the Ratio was determined as 3.2.

In [3], `CC1=C(C)C(=O)C(c2cn([C@H]3C[C@H](O)[C@@H](COP(=O)(O)O)O3)c(=O)[nH]c2=O)=C(C)C1=O` showed a K obs / s of 0.0084. Besides, in assay [4], the K inact turned out to be 0.014 s⁻¹.

Take `CC1=C(C)C(=O)C(c2cn([C@H]3C[C@H](O)[C@@H](COP(=O)(O)O)O3)c(=O)[nH]c2=O)=CC1=O`: in [2], the Ratio was 2.5. For the same molecule, the k obs in assay [5] was determined as 0.0052 s⁻¹; in assay [6], 0.0028 s⁻¹; in assay [7], 0.0092 s⁻¹; in assay [8], 0.0066 s⁻¹; in assay [9], 0.011 s⁻¹; in assay [10], 0.015 s⁻¹. The molecule also yielded a k obs in [11] of 0.011 s⁻¹. In [4], the K inact is 0.015 s⁻¹.

`CC1=C(C)C(=O)C(c2cn([C@H]3C[C@H](O)[C@@H](CO)O3)c(=O)[nH]c2=O)=CC1=O`: the k obs in [12] amounted to 4e-05 s⁻¹.

The record behind these values is ChEMBL document CHEMBL1123679, “5-Quinone derivatives of 2'-deoxyuridine 5'-phosphate: inhibition and inactivation of thymidylate synthase, antitumor cell, and antiviral studies” (J Med Chem, 1987).
